Results as given in patent US10945434B2, “Azole derivative, intermediate compound, method for producing azole derivative, agricultural or horticultural chemical agent, and protective agent for industrial material” (priority 2017, dated 2021).

Legend:
[1] = system: gray mold fungi; experiment: Cucumber gray mold disease control effect test; assay type: in vivo, Botrytis cinerea; settings: 100 g/ha; spray on cotyledon cucumber; 4 days after the inoculation
Method: The compounds of the present invention were adjusted to a predetermined concentration ([…]) according to Test Example 2 in a cotyledon cucumber (variety: Sagami Hanjiro Cucumber) cultivated using a rectangular plastic pot (6 cm×6 cm), and sprayed at a ratio of 1,000 L/ha. After air-drying the spray leaves, a paper disc (8 mm in diameter) impregnated with the spore solution of gray mold fungi was placed and kept at 20° C. under high humidity conditions. On 4 days after the inoculation, a morbidity of cucumber gray mold disease was examined, and a control value was calculated by the following Equation. Control value (%)=(1−average morbidity of sprayed area/average morbidity of unsprayed area)×100
In addition, the morbidity was determined based on the following Table 12.

[2] = system: puccinia recondite-causing germs; experiment: Puccinia Recondite control effect test (spray on wheat); assay type: in vivo
[3] = system: puccinia recondite-causing germs; settings: in vivo
[4] = system: Septoria tritici; settings: in vivo
Method: The severity of flag leaf and second leaf was evaluated after 50 days lapsed after the second spraying. The control value was calculated from the average severity of the flag leaf and the second leaf. Control value (%)=(1−average severity of treated area/average severity of untreated area)×100

[5] = 3.13 g/ha, spray on second leaf stage wheat, 14 days after the inoculation

Row | Compound | control value [1] | control value [2, 5] | Control value (%) [3] | control value ([2]; in vivo) | control value [4]
1 | COC(=O)C(O)(Cn1cncn1)c1ccc(Oc2ccccc2)cc1 (stereo not shown) [control compound B, methyl 2-hydroxy-2-(4-phenoxyphenyl)-3-(1H-1,2,4-triazol-1-yl)propanoate] | 0% |  |  |  | 
2 | COC(=O)C(O)(Cn1cncn1)c1ccc(Oc2ccc(Cl)cc2)cc1Cl (stereo not shown) [Compound I-1, methyl 2-hydroxy-2-(2-chloro-4-(4-chlorophenoxy)phenyl)-3-(1H-1,2,4-triazol-1-yl)propanoate] |  | 73% | 99% |  | 
3 | COC(=O)C(O)(Cn1cncn1)c1ccc(Oc2cccc(Cl)c2)cc1Cl (stereo not shown) [Compound I-20, methyl 2-(2-chloro-4-(3-chlorophenoxy)phenyl)-2-hydroxy-3-(1H-1,2,4-triazol-1-yl)propanoate] |  | 80% |  |  | 
4 | CC(O)(Cn1cncn1)c1ccc(Oc2ccc(Cl)cc2)cc1C(F)(F)F (stereo not shown) |  |  | 86% | 20% | 88%
